Results taken from patent publication US9586936B2, “Heteroarylamine derivatives as protein kinase inhibitors” (KOREA INSTITUTE OF SCIENCE AND TECHNOLOGY, priority 2014, dated 2017).
Where two headings read alike, the source gives them in different places.

What was measured:
microsomal stability = type: in vitro ADME, Dog; settings: for microsomal stability (% at time): Dog
Description: The microsomal stability of N-(2,6-dichloro-3,5-dimethoxyphenyl)-1-(6-((4-(4-ethylpiperazin-1-yl)phenyl)amino)pyrimidin-4-yl)-1H-benz[d]imidazol-2-amine synthesized in Example 1, as a representative compound of the present invention, was evaluated.

[1] = in-vivo PK profile, rat PK; settings: Sprague-Dawley rat; for MRT inf: read-out: MRT(0-∞)
Source text: The in-vivo PK profile (mouse PK/ICR mice and rat PK/Sprague-Dawley rat) of N-(2,6-dichloro-3,5-dimethoxyphenyl)-1-(6-((4-(4-ethylpiperazin-1-yl)phenyl)amino)pyrimidin-4-yl)-1H-benz[d]imidazol-2-amine synthesized in Example 1 is as follows.

BMX = BMX (Homo sapiens, UniProt P51813); assay: kinase inhibition activity, full kinase panel; type: biochemical; settings: 1 μM of the compound; read-out: kinase activity inhibited (% inhibition)
Description: (§1) In order to measure the inhibition activity (% inhibition) of the compound of the present invention against protein kinases, a biochemical assay was conducted using a full kinase panel consisting of 340 kinases. As a representative compound of the present invention, N-(2,6-dichloro-3,5-dimethoxyphenyl)-1-(6-((4-(4-ethylpiperazin-1-yl)phenyl)amino)pyrimidin-4-yl)-1H-benz[d]imidazol-2-amine synthesized in Example 1 was used.
(§2) The kinases whose activity is inhibited by 50% or more when treated with 1 μM of the compound of Example 1 are listed in Table 1.

YES = YES (Homo sapiens, UniProt P07947); assay: kinase inhibition activity, full kinase panel; type: biochemical; settings: 1 μM of the compound; read-out: kinase activity inhibited (% inhibition)
Description: as §1, §2

MAP4K5 = MAP4K5 (Homo sapiens, UniProt Q9Y4K4); assay: kinase inhibition activity, full kinase panel; type: biochemical; settings: 1 μM of the compound; read-out: kinase activity inhibited (% inhibition)
Description: as §1, §2

Fyn = Fyn (Homo sapiens, UniProt P06241); assay: kinase inhibition activity, full kinase panel; type: biochemical; settings: 1 μM of the compound; read-out: kinase activity inhibited (% inhibition)
Description: as §1, §2

FGFR4 = FGFR4 (Homo sapiens, UniProt P22455); assay: kinase inhibition activity, full kinase panel; type: biochemical; settings: 1 μM of the compound; read-out: kinase activity inhibited (% inhibition)
Description: as §1, §2

BLK = BLK (Homo sapiens, UniProt P51451); assay: kinase inhibition activity, full kinase panel; type: biochemical; settings: 1 μM of the compound; read-out: kinase activity inhibited (% inhibition)
Description: as §1, §2

DDR2 = DDR2 (Homo sapiens, UniProt Q16832); assay: kinase inhibition activity, full kinase panel; type: biochemical; settings: 1 μM of the compound; read-out: kinase activity inhibited (% inhibition)
Description: as §1, §2

FGFR1 = FGFR1 (Homo sapiens, UniProt P11362); assay: kinase inhibition activity, full kinase panel; type: biochemical; settings: 1 μM of the compound; read-out: kinase activity inhibited (% inhibition)
Description: as §1, §2

ABL2 = ABL2 (Homo sapiens, UniProt P42684); assay: kinase inhibition activity, full kinase panel; type: biochemical; settings: 1 μM of the compound; read-out: kinase activity inhibited (% inhibition)
Description: as §1, §2

SIK2 = SIK2 (Homo sapiens, UniProt Q9H0K1); assay: kinase inhibition activity, full kinase panel; type: biochemical; settings: 1 μM of the compound; read-out: kinase activity inhibited (% inhibition)
Description: as §1, §2

MEKK2 = MEKK2 (Homo sapiens, UniProt Q9Y2U5); assay: kinase inhibition activity, full kinase panel; type: biochemical; settings: 1 μM of the compound; read-out: kinase activity inhibited (% inhibition)
Description: as §1, §2

LYN = LYN (Homo sapiens, UniProt P07948); assay: kinase inhibition activity, full kinase panel; type: biochemical; settings: 1 μM of the compound; read-out: kinase activity inhibited (% inhibition)
Description: as §1, §2

DYRK1B = DYRK1B (Homo sapiens, UniProt Q9Y463); assay: kinase inhibition activity, full kinase panel; type: biochemical; settings: 1 μM of the compound; read-out: kinase activity inhibited (% inhibition)
Description: as §1, §2

Hck = Hck (Homo sapiens, UniProt P08631); assay: kinase inhibition activity, full kinase panel; type: biochemical; settings: 1 μM of the compound; read-out: kinase activity inhibited (% inhibition)
Description: as §1, §2

ROS = ROS (Homo sapiens, UniProt P08922); assay: kinase inhibition activity, full kinase panel; type: biochemical; settings: 1 μM of the compound; read-out: kinase activity inhibited (% inhibition)
Description: as §1, §2

DYRK2 = DYRK2 (Homo sapiens, UniProt Q92630); assay: kinase inhibition activity, full kinase panel; type: biochemical; settings: 1 μM of the compound; read-out: kinase activity inhibited (% inhibition)
Description: as §1, §2

LYN B = LYN B (Homo sapiens, UniProt P07948); assay: kinase inhibition activity, full kinase panel; type: biochemical; settings: 1 μM of the compound; read-out: kinase activity inhibited (% inhibition)
Description: as §1, §2

DYRK1 = DYRK1 (Homo sapiens, UniProt Q13627); assay: kinase inhibition activity, full kinase panel; type: biochemical; settings: 1 μM of the compound; read-out: kinase activity inhibited (% inhibition)
Description: as §1, §2

TNK1 = TNK1 (Homo sapiens, UniProt Q13470); assay: kinase inhibition activity, full kinase panel; type: biochemical; settings: 1 μM of the compound; read-out: kinase activity inhibited (% inhibition)
Description: as §1, §2

FGFR2 = FGFR2 (Homo sapiens, UniProt P21802); assay: kinase inhibition activity, full kinase panel; type: biochemical; settings: 1 μM of the compound; read-out: kinase activity inhibited (% inhibition)
Description: as §1, §2

FLT3 = FLT3 (Homo sapiens, UniProt P36888); assay: kinase inhibition activity, full kinase panel; type: biochemical; settings: 1 μM of the compound; read-out: kinase activity inhibited (% inhibition)
Description: as §1, §2

TRKA = TRKA (Homo sapiens, UniProt P04629); assay: kinase inhibition activity, full kinase panel; type: biochemical; settings: 1 μM of the compound; read-out: kinase activity inhibited (% inhibition)
Description: as §1, §2

TIE2 = TIE2 (Homo sapiens, UniProt Q02763); assay: kinase inhibition activity, full kinase panel; type: biochemical; settings: 1 μM of the compound; read-out: kinase activity inhibited (% inhibition)
Description: as §1, §2

TAOK2 = TAOK2 (Homo sapiens, UniProt Q9UL54); assay: kinase inhibition activity, full kinase panel; type: biochemical; settings: 1 μM of the compound; read-out: kinase activity inhibited (% inhibition)
Description: as §1, §2

FGFR3 = FGFR3 (Homo sapiens, UniProt P22607); assay: kinase inhibition activity, full kinase panel; type: biochemical; settings: 1 μM of the compound; read-out: kinase activity inhibited (% inhibition)
Description: as §1, §2

LIMK1 = LIMK1 (Homo sapiens, UniProt P53667); assay: kinase inhibition activity, full kinase panel; type: biochemical; settings: 1 μM of the compound; read-out: kinase activity inhibited (% inhibition)
Description: as §1, §2

SIK3 = SIK3 (Homo sapiens, UniProt Q9Y2K2); assay: kinase inhibition activity, full kinase panel; type: biochemical; settings: 1 μM of the compound; read-out: kinase activity inhibited (% inhibition)
Description: as §1, §2

MEKK3 = MEKK3 (Homo sapiens, UniProt Q99759); assay: kinase inhibition activity, full kinase panel; type: biochemical; settings: 1 μM of the compound; read-out: kinase activity inhibited (% inhibition)
Description: as §1, §2

EGFR = EGFR (Homo sapiens, UniProt P00533); assay: kinase inhibition activity, full kinase panel; type: biochemical; settings: 1 μM of the compound; read-out: kinase activity inhibited (% inhibition)
Description: as §1, §2

FLT4 = FLT4 (Homo sapiens, UniProt P35916); assay: kinase inhibition activity, full kinase panel; type: biochemical; settings: 1 μM of the compound; read-out: kinase activity inhibited (% inhibition)
Description: as §1, §2

DDR1 = DDR1 (Homo sapiens, UniProt Q08345); assay: kinase inhibition activity, full kinase panel; type: biochemical; settings: 1 μM of the compound; read-out: kinase activity inhibited (% inhibition)
Description: as §1, §2

HER2 = HER2 (Homo sapiens, UniProt P04626); assay: kinase inhibition activity, full kinase panel; type: biochemical; settings: 1 μM of the compound; read-out: kinase activity inhibited (% inhibition)
Description: as §1, §2

ABL2, sequence (P42684 whole entry): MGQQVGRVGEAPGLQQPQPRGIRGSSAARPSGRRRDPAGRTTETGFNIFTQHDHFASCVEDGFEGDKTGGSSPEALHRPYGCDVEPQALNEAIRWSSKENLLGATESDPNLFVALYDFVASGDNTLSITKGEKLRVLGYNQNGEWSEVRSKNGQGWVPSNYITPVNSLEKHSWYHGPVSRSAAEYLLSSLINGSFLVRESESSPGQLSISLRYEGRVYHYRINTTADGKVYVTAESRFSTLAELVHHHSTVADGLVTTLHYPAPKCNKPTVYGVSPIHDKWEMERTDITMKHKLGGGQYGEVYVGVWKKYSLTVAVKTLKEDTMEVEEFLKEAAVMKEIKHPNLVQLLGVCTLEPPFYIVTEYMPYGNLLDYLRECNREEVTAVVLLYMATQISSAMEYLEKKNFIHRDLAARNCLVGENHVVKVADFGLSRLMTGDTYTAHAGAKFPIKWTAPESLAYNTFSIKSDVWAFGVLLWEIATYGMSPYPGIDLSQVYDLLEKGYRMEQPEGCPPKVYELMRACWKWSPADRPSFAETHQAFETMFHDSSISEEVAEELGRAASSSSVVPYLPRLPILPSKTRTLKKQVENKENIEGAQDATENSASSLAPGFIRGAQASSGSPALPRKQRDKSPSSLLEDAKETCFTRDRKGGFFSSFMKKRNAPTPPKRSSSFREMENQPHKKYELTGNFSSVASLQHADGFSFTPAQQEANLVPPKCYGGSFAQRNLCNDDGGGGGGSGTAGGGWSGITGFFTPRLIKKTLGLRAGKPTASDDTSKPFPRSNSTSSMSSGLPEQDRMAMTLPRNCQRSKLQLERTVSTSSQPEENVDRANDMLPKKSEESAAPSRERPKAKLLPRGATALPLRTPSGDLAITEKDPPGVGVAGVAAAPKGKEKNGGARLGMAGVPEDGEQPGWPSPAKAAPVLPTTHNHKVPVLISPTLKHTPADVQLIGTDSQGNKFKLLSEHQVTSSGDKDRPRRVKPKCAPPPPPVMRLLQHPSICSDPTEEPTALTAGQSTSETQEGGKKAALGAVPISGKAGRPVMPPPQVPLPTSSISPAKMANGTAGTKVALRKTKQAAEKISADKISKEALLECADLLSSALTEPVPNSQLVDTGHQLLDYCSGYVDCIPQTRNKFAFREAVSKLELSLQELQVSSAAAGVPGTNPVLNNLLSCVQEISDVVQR
LYN B, sequence (P07948 1-491 isoform P07948-2): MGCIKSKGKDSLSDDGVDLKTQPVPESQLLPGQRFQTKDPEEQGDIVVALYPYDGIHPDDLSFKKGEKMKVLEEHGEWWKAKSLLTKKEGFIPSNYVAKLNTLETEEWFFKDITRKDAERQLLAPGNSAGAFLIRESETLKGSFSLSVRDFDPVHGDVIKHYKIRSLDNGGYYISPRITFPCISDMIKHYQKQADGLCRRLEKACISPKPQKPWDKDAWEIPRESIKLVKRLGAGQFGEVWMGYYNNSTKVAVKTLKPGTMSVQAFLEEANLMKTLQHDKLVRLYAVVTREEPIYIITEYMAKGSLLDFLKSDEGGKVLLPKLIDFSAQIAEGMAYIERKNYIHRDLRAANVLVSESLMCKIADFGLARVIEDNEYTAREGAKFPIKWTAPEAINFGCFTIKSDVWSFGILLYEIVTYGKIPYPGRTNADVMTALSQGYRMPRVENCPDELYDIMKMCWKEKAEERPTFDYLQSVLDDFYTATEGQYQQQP
SIK2, sequence (Q9H0K1 whole entry): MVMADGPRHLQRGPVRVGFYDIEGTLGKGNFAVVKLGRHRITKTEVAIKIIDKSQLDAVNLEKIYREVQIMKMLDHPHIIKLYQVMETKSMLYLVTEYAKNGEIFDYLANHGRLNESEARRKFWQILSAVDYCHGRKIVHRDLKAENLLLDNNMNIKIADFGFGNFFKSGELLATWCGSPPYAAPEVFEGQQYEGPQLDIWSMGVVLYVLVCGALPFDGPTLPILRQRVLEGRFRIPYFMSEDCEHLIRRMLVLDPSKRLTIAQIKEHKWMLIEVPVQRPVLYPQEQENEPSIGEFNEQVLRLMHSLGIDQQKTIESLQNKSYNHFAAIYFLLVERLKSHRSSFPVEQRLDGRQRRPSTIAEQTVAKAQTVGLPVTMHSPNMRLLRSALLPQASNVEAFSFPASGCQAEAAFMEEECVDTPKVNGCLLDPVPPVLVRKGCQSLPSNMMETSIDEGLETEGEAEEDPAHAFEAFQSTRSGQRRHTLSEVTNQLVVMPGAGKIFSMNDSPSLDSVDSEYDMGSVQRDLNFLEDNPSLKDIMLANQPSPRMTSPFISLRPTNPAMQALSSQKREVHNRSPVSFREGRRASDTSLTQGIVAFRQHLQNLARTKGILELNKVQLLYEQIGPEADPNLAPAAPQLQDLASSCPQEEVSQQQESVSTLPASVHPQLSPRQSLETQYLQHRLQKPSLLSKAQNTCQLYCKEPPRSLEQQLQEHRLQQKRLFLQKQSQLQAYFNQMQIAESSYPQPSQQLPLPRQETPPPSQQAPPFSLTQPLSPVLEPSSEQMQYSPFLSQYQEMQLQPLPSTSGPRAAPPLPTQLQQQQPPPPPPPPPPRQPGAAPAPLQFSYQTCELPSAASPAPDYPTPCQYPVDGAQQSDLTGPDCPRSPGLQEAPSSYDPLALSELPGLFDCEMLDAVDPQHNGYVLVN
Fyn, sequence (P06241 whole entry): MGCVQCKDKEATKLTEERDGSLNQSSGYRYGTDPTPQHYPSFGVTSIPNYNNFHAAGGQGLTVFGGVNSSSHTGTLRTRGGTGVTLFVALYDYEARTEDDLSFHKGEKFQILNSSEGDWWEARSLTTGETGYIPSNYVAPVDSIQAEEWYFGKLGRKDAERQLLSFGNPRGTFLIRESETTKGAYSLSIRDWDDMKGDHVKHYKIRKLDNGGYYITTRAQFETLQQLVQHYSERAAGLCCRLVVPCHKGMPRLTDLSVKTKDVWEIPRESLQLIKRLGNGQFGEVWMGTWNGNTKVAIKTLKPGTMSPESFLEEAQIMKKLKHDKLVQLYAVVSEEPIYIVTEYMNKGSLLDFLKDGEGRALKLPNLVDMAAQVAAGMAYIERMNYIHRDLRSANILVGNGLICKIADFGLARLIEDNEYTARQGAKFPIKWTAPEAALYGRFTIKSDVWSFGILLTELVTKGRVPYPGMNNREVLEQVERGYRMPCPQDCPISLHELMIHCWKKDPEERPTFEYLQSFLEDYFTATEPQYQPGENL
FLT4, sequence (P35916 25-1363): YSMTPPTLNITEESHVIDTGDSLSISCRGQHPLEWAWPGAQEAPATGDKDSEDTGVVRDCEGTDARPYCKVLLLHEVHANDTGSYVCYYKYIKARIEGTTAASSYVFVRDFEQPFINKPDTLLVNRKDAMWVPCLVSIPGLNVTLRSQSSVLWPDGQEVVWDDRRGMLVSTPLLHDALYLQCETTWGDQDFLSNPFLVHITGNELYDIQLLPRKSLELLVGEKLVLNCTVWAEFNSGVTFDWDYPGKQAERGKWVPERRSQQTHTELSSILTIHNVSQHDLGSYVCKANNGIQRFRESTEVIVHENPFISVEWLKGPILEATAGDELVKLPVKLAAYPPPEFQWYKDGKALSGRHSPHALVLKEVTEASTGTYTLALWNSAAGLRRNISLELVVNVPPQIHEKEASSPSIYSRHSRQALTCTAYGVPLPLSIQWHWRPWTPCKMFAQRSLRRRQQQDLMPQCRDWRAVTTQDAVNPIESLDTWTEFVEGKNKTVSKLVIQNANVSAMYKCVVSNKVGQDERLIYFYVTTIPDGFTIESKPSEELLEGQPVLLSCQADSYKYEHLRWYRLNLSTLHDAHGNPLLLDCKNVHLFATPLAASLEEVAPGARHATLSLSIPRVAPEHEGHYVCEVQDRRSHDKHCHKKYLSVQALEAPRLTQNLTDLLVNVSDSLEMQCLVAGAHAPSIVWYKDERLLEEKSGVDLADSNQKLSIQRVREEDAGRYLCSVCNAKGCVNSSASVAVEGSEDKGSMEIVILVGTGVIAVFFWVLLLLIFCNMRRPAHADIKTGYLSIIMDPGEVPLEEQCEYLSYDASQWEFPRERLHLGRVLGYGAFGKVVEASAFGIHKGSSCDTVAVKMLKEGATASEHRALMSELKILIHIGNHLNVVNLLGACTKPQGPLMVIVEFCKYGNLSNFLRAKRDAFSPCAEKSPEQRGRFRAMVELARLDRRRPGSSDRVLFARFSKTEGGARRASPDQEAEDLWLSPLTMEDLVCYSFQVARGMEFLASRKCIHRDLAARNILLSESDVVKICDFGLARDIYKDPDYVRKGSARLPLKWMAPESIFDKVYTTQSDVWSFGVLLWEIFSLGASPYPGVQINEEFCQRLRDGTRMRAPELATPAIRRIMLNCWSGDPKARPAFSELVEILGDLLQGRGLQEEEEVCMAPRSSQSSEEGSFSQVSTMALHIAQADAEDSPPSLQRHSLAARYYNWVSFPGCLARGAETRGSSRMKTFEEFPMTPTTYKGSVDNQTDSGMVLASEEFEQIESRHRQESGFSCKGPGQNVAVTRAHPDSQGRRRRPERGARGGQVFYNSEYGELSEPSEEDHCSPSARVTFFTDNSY
YES, sequence (P07947 whole entry): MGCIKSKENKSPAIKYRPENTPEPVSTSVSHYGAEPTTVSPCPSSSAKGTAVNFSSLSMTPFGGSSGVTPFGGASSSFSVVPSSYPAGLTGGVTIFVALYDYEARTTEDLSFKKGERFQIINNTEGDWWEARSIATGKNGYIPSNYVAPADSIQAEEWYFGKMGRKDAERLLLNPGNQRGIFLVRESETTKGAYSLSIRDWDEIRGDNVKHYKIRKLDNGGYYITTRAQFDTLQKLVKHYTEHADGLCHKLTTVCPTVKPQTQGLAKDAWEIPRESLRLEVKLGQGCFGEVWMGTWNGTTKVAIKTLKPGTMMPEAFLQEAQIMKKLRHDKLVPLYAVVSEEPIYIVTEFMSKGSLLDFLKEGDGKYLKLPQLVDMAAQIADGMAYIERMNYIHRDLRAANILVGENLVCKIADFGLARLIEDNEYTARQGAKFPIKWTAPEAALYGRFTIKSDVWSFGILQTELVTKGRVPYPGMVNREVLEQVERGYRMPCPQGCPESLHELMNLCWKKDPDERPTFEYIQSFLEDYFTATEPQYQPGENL

## CCN1CCN(c2ccc(Nc3cc(-n4c(Nc5c(Cl)c(OC)cc(OC)c5Cl)nc5ccccc54)ncn3)cc2)CC1 [Example 1, N-(2,6-dichloro-3,5-dimethoxyphenyl)-1-(6-((4-(4-ethylpiperazin-1-yl)phenyl)amino)pyrimidin-4-yl)-1H-benz[d]imidazol-2-amine]
Microsomal stability; 0 min
  microsomal stability (% at time): 100.00%
Microsomal stability; 5 min
  microsomal stability (% at time): 77.02%
Microsomal stability; 10 min
  microsomal stability (% at time): 57.41%
Microsomal stability; 15 min
  microsomal stability (% at time): 44.70%
Microsomal stability; 30 min
  microsomal stability (% at time): 21.03%
Microsomal stability; 45 min
  microsomal stability (% at time): 8.23%
Microsomal stability; 60 min
  microsomal stability (% at time): 5.02%
Microsomal stability; microsomes, Dog microsomal stability
  half-life: 0.225 h
[1]; PO 5 mg/kg
  F*: 13.46%
[1]; in vivo, IV 5 mg/kg
  AUC(0-inf): 884 ng·h/mL
  AUC(0-t): 844 ng·h/mL
  Cmax: 271 ng/mL
  Tmax: 0.083 h
  clearance: 97.3 mL/min/kg
  half-life: 5.75 h
  MRT inf: 6.37 h
[1]; in vivo, IV 5 mg/kg, read-out: Vz
  Vd: 48 L/kg
[1]; in vivo, PO 5 mg/kg
  AUC(0-inf): 652 ng·h/mL
  AUC(0-t): 129 ng·h/mL
  Cmax: 11.6 ng/mL
  Tmax: 5.33 h
  half-life: 9.14 h
  MRT inf: 12.6 h
BMX
  inhibition at 1 µM: ≥ 50%
YES
  inhibition at 1 µM: ≥ 50%
MAP4K5
  inhibition at 1 µM: ≥ 50%
Fyn
  inhibition at 1 µM: ≥ 50%
FGFR4
  inhibition at 1 µM: ≥ 50%
BLK
  inhibition at 1 µM: ≥ 50%
DDR2
  inhibition at 1 µM: ≥ 50%
FGFR1
  inhibition at 1 µM: ≥ 50%
ABL2
  inhibition at 1 µM: ≥ 50%
SIK2
  inhibition at 1 µM: ≥ 50%
MEKK2
  inhibition at 1 µM: ≥ 50%
LYN
  inhibition at 1 µM: ≥ 50%
DYRK1B
  inhibition at 1 µM: ≥ 50%
Hck
  inhibition at 1 µM: ≥ 50%
ROS
  inhibition at 1 µM: ≥ 50%
DYRK2
  inhibition at 1 µM: ≥ 50%
LYN B
  inhibition at 1 µM: ≥ 50%
DYRK1
  inhibition at 1 µM: ≥ 50%
TNK1
  inhibition at 1 µM: ≥ 50%
FGFR2
  inhibition at 1 µM: ≥ 50%
FLT3
  inhibition at 1 µM: ≥ 50%
TRKA
  inhibition at 1 µM: ≥ 50%
TIE2
  inhibition at 1 µM: ≥ 50%
TAOK2
  inhibition at 1 µM: ≥ 50%
FGFR3
  inhibition at 1 µM: ≥ 50%
LIMK1
  inhibition at 1 µM: ≥ 50%
SIK3
  inhibition at 1 µM: ≥ 50%
MEKK3
  inhibition at 1 µM: ≥ 50%
EGFR
  inhibition at 1 µM: ≥ 50%
FLT4
  inhibition at 1 µM: ≥ 50%
DDR1
  inhibition at 1 µM: ≥ 50%
HER2
  inhibition at 1 µM: ≥ 50%
